# Assay results reported in PMC6438731, “Extrasynaptic δ‐GABAA receptors are high‐affinity muscimol receptors” (Journal of Neurochemistry, 2019).
# What was measured:
# [1] = molecular target: forebrain membranes of δKO mice; experiment: Saturation analysis of [^3H]muscimol binding, δKO forebrain membranes; set-up: species or system mouse; conditions: 0°C
# Experimental: (§1) WT and δKO forebrain and cerebellar membranes were prepared using a modification of the method of Squires and Saederup (2000) essentially as described by Uusi‐Oukari et al. (2014). […] forebrain along with midbrain region was homogenized into 10 mM Tris‐HCl, pH 8.0 buffer containing 2 mM EDTA, using an Ultra‐Turrax T25 (Janke & Kunkel IKA labortechnik) for 20 s at 9500 rpm. The homogenates were centrifuged at 20 000 g for 10 min at +4°C and the resulting pellets were washed three times by resuspension and re‐centrifugation with 10 mM Tris‐HCl, pH 8.5 buffer containing 0.2 M NaCl, and 5 mM EDTA. The resulting pellets were then suspended in ice‐cold H2O and centrifuged. The pellets were again washed three times with Tris, pH 8.5/NaCl/EDTA as described above. The resulting pellets were finally suspended in assay buffer consisting of 50 mM Tris‐base, pH adjusted to 7.4 with citric acid, and frozen at −70°C. Before a binding experiment, the suspension was thawed, centrifuged, and suspended in assay buffer.
# (§2) Saturation analysis of [^3H]muscimol to WT and δKO mouse forebrain and cerebellar membranes was performed essentially as described by Uusi‐Oukari and Korpi (1989). […] The incubations were terminated as described above.
# [2] = molecular target: T1, α6β3δ recombinant GABAA receptor (Rattus norvegicus, UniProt P30191+P63079); experiment: [^3H]muscimol binding kinetics, recombinant α6β3δ in HEK293 membranes
# T1 construct: expressed in transfected cells; host or cells: HEK293 (ATCC CRL-1573), pRK5 plasmids, membranes
# Text: (§3) Human embryonic kidney (HEK) 293 cells (ATCC Cat# CRL‐1573; RRID: CVCL_0045; a commonly misidentified cell line by ICLAC; last authenticated by STR DNA profiling in December 2018) were transfected with rat cDNAs (α1, L08490; α6, L08495; β2, X15467; β3, X15468; γ2S, L08497; δ, L08496) in pRK5 plasmids under the control of the cytomegalovirus promoter (Uusi‐Oukari et al. 2000), using the calcium phosphate precipitation method essentially as described (Lüddens and Korpi 1997). The plasmids were used in 1 : 1 and 1 : 1 : 1 ratios for transfections containing 2 [(α1 or α6) + (β2 or β3)] or 3 [(α1 or α6) + (β2 or β3) + (γ2S or δ)] different subunits, respectively (5 μg of each plasmid DNA for a 10 cm plate). Mock transfection was done using 5 μg pRK5 plasmid backbone. The cells were harvested 48 h after transfection. Culture medium was removed and the cells were detached from the plates by pipetting in ice‐cold assay buffer containing 2 mM EDTA. The cells were homogenized (Ultra Turrax, 20 s at 9500 rpm), the homogenates centrifuged at 20 000 g for 10 min at +4°C, and washed once with the same buffer. The homogenates were finally suspended in assay buffer (1 mL/plate) and either used directly to binding assays or stored frozen at −70°C.
# The binding of [^3H]muscimol (5 nM) was measured in assay buffer at 22°C in a total volume of 300 μL. […] Air‐dried filters were immersed in 3 mL of Optiphase HiSafe 3 scintillation fluid (Wallac, Turku, Finland) and radioactivity determined in a Wallac model 1410 liquid scintillation counter (Wallac, Turku, Finland). […]
# (§4) The tubes were mixed and incubations at 22°C were terminated at various time points (30 s – 30 min) as described above. Dissociation of [^3H]muscimol from recombinant receptors in HEK cell membranes was also measured at 0–4°C (on ice) to evaluate how fast [^3H]muscimol dissociates from receptors while washing the filter with ice‐cold assay buffer during filtration.
# [3] = molecular target: forebrain membranes of WT mice; experiment: Saturation analysis of [^3H]muscimol binding, WT forebrain membranes; set-up: species or system mouse; conditions: 0°C
# Experimental: as §1, §2
# [4] = molecular target: cerebellar membranes of δKO mice; experiment: Saturation analysis of [^3H]muscimol binding, δKO cerebellar membranes; set-up: species or system mouse; conditions: 0°C
# Experimental: as §1, §2
# [5] = molecular target: forebrain membranes of WT mice; experiment: [^3H]muscimol binding kinetics, WT forebrain membranes; set-up: species or system mouse
# Experimental: as §1
# (§5) The binding of [^3H]muscimol (5 nM) was measured in assay buffer at 22°C in a total volume of 300 μL. Triplicate technical replicates of mouse forebrain (190–215 μg protein), cerebellar (180–210 μg protein) or HEK cell (92–132 μg protein) membranes for each time point were incubated with shaking for various times (15 s–15 min) to measure association of the binding. […] Air‐dried filters were immersed in 3 mL of Optiphase HiSafe 3 scintillation fluid (Wallac, Turku, Finland) and radioactivity determined in a Wallac model 1410 liquid scintillation counter (Wallac, Turku, Finland). […]
# as §4
# [6] = molecular target: cerebellar membranes of δKO mice (non‐δ‐GABAARs); experiment: [^3H]muscimol binding kinetics, δKO cerebellar membranes; set-up: species or system mouse
# Experimental: as §1, §5, §4
# [7] = molecular target: cerebellar membranes of WT mice; experiment: [^3H]muscimol binding kinetics, WT cerebellar membranes; set-up: species or system mouse
# Experimental: as §1, §5, §4
# [8] = molecular target: T2, α1β2γ2 recombinant GABAA receptor (Rattus norvegicus, UniProt P62813+P63138); experiment: [^3H]muscimol binding kinetics, recombinant α1β2γ2 in HEK293 membranes
# T2 construct: expressed in transfected cells; host or cells: HEK293 (ATCC CRL-1573), pRK5 plasmids, membranes
# Text: as §3
# The binding of [^3H]muscimol (5 nM) was measured in assay buffer at 22°C in a total volume of 300 μL. Triplicate technical replicates of mouse forebrain (190–215 μg protein), cerebellar (180–210 μg protein) or HEK cell (92–132 μg protein) membranes for each time point were incubated with shaking for various times (15 s–15 min) to measure association of the binding. […] The incubation was terminated by filtration of the samples with a Brandel Cell Harvester (model M‐24, Gaithersburg, MD, USA) onto Whatman GF/B filters (Whatman International Ltd., Maidstone, UK). The samples were rinsed twice with 4–5 mL of ice‐cold assay buffer. Filtration and rinsing steps took a total time of ~15 s. Air‐dried filters were immersed in 3 mL of Optiphase HiSafe 3 scintillation fluid (Wallac, Turku, Finland) and radioactivity determined in a Wallac model 1410 liquid scintillation counter (Wallac, Turku, Finland).
# as §4
# [9] = molecular target: cerebellar membranes of WT mice; experiment: Saturation analysis of [^3H]muscimol binding, WT cerebellar membranes; set-up: species or system mouse; conditions: 0°C
# Experimental: as §1, §2
# [10] = molecular target: T3, α1β2δ recombinant GABAA receptor (Rattus norvegicus, UniProt P62813+P63138); experiment: [^3H]muscimol binding kinetics, recombinant α1β2δ in HEK293 membranes; conditions: room temperature (22°C)
# T3 construct: expressed in transfected cells; host or cells: HEK293 (ATCC CRL-1573), pRK5 plasmids, membranes
# Text: Human embryonic kidney (HEK) 293 cells (ATCC Cat# CRL‐1573; RRID: CVCL_0045; a commonly misidentified cell line by ICLAC; last authenticated by STR DNA profiling in December 2018) were transfected with rat cDNAs (α1, L08490; α6, L08495; β2, X15467; β3, X15468; γ2S, L08497; δ, L08496) in pRK5 plasmids under the control of the cytomegalovirus promoter (Uusi‐Oukari et al. 2000), using the calcium phosphate precipitation method essentially as described (Lüddens and Korpi 1997). The plasmids were used in 1 : 1 and 1 : 1 : 1 ratios for transfections containing 2 [(α1 or α6) + (β2 or β3)] or 3 [(α1 or α6) + (β2 or β3) + (γ2S or δ)] different subunits, respectively (5 μg of each plasmid DNA for a 10 cm plate). […]
# The binding of [^3H]muscimol (5 nM) was measured in assay buffer at 22°C in a total volume of 300 μL. […] Air‐dried filters were immersed in 3 mL of Optiphase HiSafe 3 scintillation fluid (Wallac, Turku, Finland) and radioactivity determined in a Wallac model 1410 liquid scintillation counter (Wallac, Turku, Finland).
# as §4
# [11] = room temperature (22°C), 5 nM [^3H]muscimol
# T2 sequence (P62813 28-455): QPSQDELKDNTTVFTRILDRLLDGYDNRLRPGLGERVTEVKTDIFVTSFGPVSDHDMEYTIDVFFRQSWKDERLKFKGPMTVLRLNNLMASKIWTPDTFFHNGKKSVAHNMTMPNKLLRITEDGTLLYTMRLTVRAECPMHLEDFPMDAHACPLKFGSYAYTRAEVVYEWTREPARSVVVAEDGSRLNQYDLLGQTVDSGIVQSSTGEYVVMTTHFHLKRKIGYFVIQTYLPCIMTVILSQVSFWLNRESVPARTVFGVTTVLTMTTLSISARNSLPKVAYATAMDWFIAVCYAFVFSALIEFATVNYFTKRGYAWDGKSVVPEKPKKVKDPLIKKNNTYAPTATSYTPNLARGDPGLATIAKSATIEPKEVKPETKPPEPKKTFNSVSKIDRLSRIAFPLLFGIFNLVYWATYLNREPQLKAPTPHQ
# T2 sequence (P63138 26-474): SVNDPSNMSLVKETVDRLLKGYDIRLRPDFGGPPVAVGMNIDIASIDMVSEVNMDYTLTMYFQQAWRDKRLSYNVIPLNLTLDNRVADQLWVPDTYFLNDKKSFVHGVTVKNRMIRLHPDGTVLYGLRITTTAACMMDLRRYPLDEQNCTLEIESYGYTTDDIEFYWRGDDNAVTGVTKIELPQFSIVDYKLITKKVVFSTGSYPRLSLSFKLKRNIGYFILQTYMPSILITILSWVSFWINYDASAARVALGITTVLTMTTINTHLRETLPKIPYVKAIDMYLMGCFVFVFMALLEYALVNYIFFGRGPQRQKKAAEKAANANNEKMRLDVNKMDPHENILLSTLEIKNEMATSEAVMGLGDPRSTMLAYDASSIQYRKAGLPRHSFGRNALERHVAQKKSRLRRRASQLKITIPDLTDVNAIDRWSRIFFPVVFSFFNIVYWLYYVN
# T2 sequence (P18508 39-466 partner): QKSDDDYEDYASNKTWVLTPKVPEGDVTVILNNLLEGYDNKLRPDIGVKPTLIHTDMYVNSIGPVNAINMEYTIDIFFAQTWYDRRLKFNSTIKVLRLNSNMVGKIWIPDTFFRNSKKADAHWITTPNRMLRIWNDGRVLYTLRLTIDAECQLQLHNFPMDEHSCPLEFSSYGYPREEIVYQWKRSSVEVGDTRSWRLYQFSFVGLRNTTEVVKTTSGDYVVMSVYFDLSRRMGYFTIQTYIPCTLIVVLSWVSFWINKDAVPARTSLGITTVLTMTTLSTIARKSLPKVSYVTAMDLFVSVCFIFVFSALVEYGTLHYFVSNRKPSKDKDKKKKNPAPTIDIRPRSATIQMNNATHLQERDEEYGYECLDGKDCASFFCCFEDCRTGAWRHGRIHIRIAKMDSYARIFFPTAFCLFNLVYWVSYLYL
# T1 sequence (P30191 20-453): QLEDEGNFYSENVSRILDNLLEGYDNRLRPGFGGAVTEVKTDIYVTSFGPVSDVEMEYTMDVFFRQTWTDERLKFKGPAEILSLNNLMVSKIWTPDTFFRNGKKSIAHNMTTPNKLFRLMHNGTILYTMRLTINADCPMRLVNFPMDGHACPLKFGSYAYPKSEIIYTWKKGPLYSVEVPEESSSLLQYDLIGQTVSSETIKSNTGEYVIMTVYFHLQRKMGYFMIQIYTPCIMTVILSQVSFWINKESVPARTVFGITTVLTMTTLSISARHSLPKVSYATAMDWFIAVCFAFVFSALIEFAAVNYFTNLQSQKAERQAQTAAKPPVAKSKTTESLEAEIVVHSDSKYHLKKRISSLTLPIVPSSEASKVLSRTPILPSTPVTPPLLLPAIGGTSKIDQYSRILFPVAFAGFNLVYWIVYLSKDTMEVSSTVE
# T1 sequence (P63079 26-473): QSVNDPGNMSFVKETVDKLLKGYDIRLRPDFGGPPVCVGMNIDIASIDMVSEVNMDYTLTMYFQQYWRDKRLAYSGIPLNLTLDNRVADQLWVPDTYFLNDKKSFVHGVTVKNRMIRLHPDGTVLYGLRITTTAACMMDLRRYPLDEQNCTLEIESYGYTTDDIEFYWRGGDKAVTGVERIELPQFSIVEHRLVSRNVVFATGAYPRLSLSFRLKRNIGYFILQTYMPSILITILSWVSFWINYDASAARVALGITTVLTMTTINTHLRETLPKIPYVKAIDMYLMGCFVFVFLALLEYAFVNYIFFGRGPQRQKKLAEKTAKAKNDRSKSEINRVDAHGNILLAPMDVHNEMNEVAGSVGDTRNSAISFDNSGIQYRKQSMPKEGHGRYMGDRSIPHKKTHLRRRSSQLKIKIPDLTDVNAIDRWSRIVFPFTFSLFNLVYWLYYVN
# T1 sequence (P18506 25-449 partner): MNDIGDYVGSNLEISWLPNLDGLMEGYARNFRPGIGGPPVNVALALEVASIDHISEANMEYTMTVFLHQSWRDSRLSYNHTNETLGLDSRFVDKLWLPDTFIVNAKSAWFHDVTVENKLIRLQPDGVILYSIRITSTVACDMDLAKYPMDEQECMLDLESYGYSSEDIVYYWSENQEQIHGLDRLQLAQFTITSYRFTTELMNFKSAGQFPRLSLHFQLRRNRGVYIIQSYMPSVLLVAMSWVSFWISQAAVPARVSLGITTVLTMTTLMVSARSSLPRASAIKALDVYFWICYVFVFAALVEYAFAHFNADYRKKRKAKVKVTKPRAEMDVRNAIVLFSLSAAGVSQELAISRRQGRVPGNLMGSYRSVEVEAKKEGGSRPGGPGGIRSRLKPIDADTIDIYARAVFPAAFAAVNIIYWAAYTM
# T3 sequence (P62813 28-455): as the sequence (P62813 28-455) above
# T3 sequence (P63138 26-474): as the sequence (P63138 26-474) above
# T3 sequence (P18506 25-449 partner): as the sequence (P18506 25-449 partner) above
smiles,measurement,setting,value
NCc1cc(=O)[nH]o1 [[^3H]muscimol] [[Methylene‐^3H]muscimol],Apparent pKD,[1],7.68 ± 0.05
same,Kd,"[2]; 22°C, K D = koff/kon",0.72 nM
same,k off,[2]; room temperature (22°C),0.13 ± 0.01 ^### min^−1
same,k on,[2]; [11],"1.8 ± 0.1 × 10^8, ^### M^−1 × min^−1"
same,Apparent pKD,[3],8.02 ± 0.06
same,Apparent pKD,[4],8.15 ± 0.02
same,Kd,"[5]; 22°C, K D = koff/kon",1.6 nM
same,k off,[5]; room temperature (22°C),0.00883 ± 0.00033 s⁻¹
same,k on,[5]; [11],3.3 ± 0.2 × 10^8 M^−1 × min^−1
same,Kd,"[6]; 22°C, K D = koff/kon",1.4 nM
same,k off,[6]; room temperature (22°C),1.11 ± 0.09 ^* min^−1
same,k on,[6]; [11],7.7 ± 0.2 × 10^8 ^** M^−1 × min^−1
same,Kd,"[7]; 22°C, K D = koff/kon",1.7 nM
same,k off,[7]; room temperature (22°C),0.00783 ± 0.00233 s⁻¹
same,k on,[7]; [11],2.8 ± 0.2 × 10^8 M^−1 × min^−1
same,dissociation of [^3H]muscimol binding during the first 15 s after pre‐incubation,"[8]; α1β2γ2, 0°C, approximated",about 10%
same,Kd,"[8]; α1β2γ2 in HEK293 membranes, 22°C, K D = koff/kon",1.6 nM
same,k off,"[8]; α1β2γ2 in HEK293 membranes, +4 °C",0.00587 ± 0.00015 s⁻¹
same,k off,"[8]; α1β2γ2 in HEK293 membranes, room temperature (22°C)",0.0297 ± 0.003 s⁻¹
same,k on,"[8]; α1β2γ2 in HEK293 membranes, room temperature (22°C), 5 nM [^3H]muscimol",11 ± 0.6 × 10^8 M^−1 × min^−1
same,Apparent pKD,[9],8.34 ± 0.01
same,k off,[10],0.18 ± 0.03 ^### min^−1
